The results in this text go back to PMC8587653 (Molecules, 2021).

The structures appear in SMILES notation.

By IC50 is commonly meant the concentration at which inhibition is half-maximal.

In test [1] the target is butyrylcholinesterase (E.C. 3.1.1.8, from horse serum) (Equus caballus, UniProt P81908). As to the kind of experiment: In vitro butyrylcholinesterase inhibition assay (Ellman's method). The format is biochemical. Conditions: for Butyrylcholinesterse (BChE) %inhibition: compounds with <50% inhibition. (In general: Ellman's reagent forms a yellow product with free thiols.)
Test [2] concerns the target acetylcholinesterase (Electrophorus electricus, UniProt O42275). The test can be described thus: Kinetics studies, mechanism of inhibition (Lineweaver-Burk). The format is biochemical, electric eel. The following applies: substrate acetylthiocholine iodide; Vmax not affected, Km increased. The protocol: Enzyme kinetics were used to determine the mechanism of acetylcholinesterase inhibition. Lineweaver-Burk graph ([…]) were used for the determination of the type of inhibition and analysis of effect of inhibitor on Vmax and Kₘ. The slope Km/Vmax of each line in the Lineweaver-Burk plot was plotted against different concentrations of substrate and chemicals to determine the value of Ki.
Kinetics studies were performed on 5b and 5d with different concentrations of compounds and substrate. Four concentrations of 1 mM compound 5b (0, 0.06, 0.12, 0.18 µM), compound 5d (0, 0.3, 0.6, 0.9 µM) and four concentrations of substrate (0, 0.5, 1.0, 1.5 and 2.0 mM showing 1/S as 0.0, 2.0, 1.0, 0.667 and 0.5, respectively) were made. Both compounds competes with substrate (acetylthiocholine iodide) for binding in the active site of acetylcholinesterase.
Michaelis-Menten kinetics experiments were used to determine the type of enzyme inhibition. […] For this purpose, the initial rates of the enzyme inhibition at four concentrations of substrate (0, 0.5, 1.0, 1.5, 2.0 mM) in the absence and presence of four different concentrations of compound 5b (0, 0.06, 0.12, 0.18 µM) and compound 5d (0, 0.3, 0.6, 0.9 µM) against acetylcholinesterase were measured.

In test [3] the target is Acetylcholinesterase (E.C.3.1.1.7, from electric eel) (Electrophorus electricus, UniProt O42275). As to the kind of experiment: biochemical. Conditions: for IC50: electric eel AChE, pH 7.7, 37 °C, triplicate, read-out: Acetylcholinesterase (AChE) IC50 ± SEM. It counts as biochemical.
Chain of Acetylcholinesterase (E.C.3.1.1.7, from electric eel) (O42275 24-633): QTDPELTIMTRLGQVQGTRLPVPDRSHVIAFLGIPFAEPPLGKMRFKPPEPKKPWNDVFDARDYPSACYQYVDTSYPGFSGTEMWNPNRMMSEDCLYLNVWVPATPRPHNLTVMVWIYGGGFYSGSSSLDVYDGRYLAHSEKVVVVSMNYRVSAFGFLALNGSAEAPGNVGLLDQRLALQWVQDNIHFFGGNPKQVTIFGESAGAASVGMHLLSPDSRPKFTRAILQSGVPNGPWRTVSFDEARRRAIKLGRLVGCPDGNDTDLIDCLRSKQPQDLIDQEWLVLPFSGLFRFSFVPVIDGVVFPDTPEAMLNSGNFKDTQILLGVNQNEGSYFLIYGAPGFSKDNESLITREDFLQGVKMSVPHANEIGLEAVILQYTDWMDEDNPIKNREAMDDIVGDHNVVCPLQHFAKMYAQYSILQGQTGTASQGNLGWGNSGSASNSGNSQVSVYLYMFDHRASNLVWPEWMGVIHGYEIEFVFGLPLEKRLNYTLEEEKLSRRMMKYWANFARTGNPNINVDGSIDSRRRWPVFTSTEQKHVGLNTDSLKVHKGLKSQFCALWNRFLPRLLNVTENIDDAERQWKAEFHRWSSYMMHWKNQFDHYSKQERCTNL

Chain of butyrylcholinesterase (E.C. 3.1.1.8, from horse serum) (P81908 whole entry): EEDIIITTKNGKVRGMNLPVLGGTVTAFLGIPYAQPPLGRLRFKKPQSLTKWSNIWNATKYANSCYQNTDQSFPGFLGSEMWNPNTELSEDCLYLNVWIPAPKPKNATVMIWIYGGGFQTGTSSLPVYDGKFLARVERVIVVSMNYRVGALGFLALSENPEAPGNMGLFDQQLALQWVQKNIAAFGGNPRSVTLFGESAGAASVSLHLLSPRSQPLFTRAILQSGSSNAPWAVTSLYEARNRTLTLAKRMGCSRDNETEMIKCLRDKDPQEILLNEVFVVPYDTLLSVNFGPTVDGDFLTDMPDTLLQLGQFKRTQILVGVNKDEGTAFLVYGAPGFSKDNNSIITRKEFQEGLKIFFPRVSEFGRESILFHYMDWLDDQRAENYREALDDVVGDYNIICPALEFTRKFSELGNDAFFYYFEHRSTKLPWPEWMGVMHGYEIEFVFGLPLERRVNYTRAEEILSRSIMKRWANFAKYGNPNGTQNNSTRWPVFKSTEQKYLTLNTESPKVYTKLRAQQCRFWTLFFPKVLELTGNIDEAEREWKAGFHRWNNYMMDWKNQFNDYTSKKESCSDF
Chain of acetylcholinesterase (O42275 24-633): as the sequence (O42275 24-633) above

With `Cc1ccc2cc(C=NNC(=S)NCCN3CCOCC3)c(Cl)nc2c1` [Compound 5d, 2-((2-Chloro-7-methylquinolin-3-yl)methylene)-N-(2-morpholinoethyl)hydrazinecarbothioamide], the “Butyrylcholinesterse (BChE) %inhibition” value in test [1] is 1.52%. Further, the “Mode of inhibition of acetylcholinesterase” value in test [2] is “competitive inhibition”. Also, in test [3], the IC50 amounted to 0.55 ± 0.01 µM.
With `S=C(NN=Cc1cc2ccc(Cl)cc2nc1Cl)Nc1ccccc1` [Compound 5k, 2-((2,7-Dichloroquinolin-3-yl)methylene)-N-phenylhydrazinecarbothioamide], the “Butyrylcholinesterse (BChE) %inhibition” value in test [1] is given as 20.3%. In test [3], the IC50 is 47.1 ± 1.45 µM.
`S=C(NCCN1CCOCC1)NN=Cc1cc2ccc(Cl)cc2nc1Cl` [Compound 5e, 2-((2,7-Dichloroquinolin-3-yl)methylene)-N-(2-morpholinoethyl)hydrazinecarbothioamide]: the “Butyrylcholinesterse (BChE) %inhibition” value in test [1] worked out at 1.88%. Further, the IC50 in test [3] is 10.5 ± 0.16 µM.
For `COc1ccc2nc(Cl)c(C=NNC(=S)Nc3ccccc3)cc2c1` [Compound 5g, 2-((2-Chloro-6-methoxyquinolin-3-yl)methylene)-N-phenylhydrazinecarbothioamide], the IC50 in test [1] (horse serum BChE, pH 7.7, 37 °C, triplicate, read-out: Butyrylcholinesterse (BChE) IC50 ± SEM) stood at 11.3 ± 0.67 µM; in test [3] it was 34.2 ± 1.02 µM.
With `Cc1ccc2nc(Cl)c(C=NNC(=S)Nc3ccccc3)cc2c1` [Compound 5h, 2-((2-Chloro-6-methylquinolin-3-yl)methylene)-N-phenylhydrazinecarbothioamide], in test [1], the “Butyrylcholinesterse (BChE) %inhibition” value is recorded as 32.6%. Also, in test [3], the IC50 came out at 49.3 ± 2.49 µM.
Take `COc1ccc2nc(Cl)c(C=NNC(=S)NCCN3CCOCC3)cc2c1` [Compound 5b, 2-((2-Chloro-6-methoxyquinolin-3-yl)methylene)-N-(2-morpholinoethyl)hydrazinecarbothioamide]: in test [1], the “Butyrylcholinesterse (BChE) %inhibition” value came to 8.12%. The “Mode of inhibition of acetylcholinesterase” value in test [2] is reported as “competitive inhibition”. Besides, the IC50 in test [3] came out at 0.12 ± 0.02 µM. Further, the “Potency against AChE relative to standard drug galantamine” value in test [3] (ratio of IC50 values vs galantamine) stood at 5 fold.
As to `S=C(NN=Cc1cc2ccccc2nc1Cl)Nc1ccccc1` [Compound 5f, 2-((2-Chloroquinolin-3-yl)methylene)-N-phenylhydrazinecarbothioamide], the “Butyrylcholinesterse (BChE) %inhibition” value in test [1] came to 4.47%. Also, the IC50 in test [3] stood at 23.2 ± 1.28 µM.
Taken in the same sequence, the figures for `COc1ccc2cc(C=NNC(=S)Nc3ccccc3)c(Cl)nc2c1` [Compound 5i, 2-((2-Chloro-7-methoxyquinolin-3-yl)methylene)-N-phenylhydrazinecarbothioamide] were 24.0% and 60.9 ± 6.57 µM.
Taken in the same sequence, the figures for `COc1ccc2cc(C=NNC(=S)NCCN3CCOCC3)c(Cl)nc2c1` [Compound 5c, 2-((2-Chloro-7-methoxyquinolin-3-yl)methylene)-N-(2-morpholinoethyl)hydrazinecarbothioamide] were 1.33% and 5.53 ± 0.11 µM.
The matching figures for `Cc1ccc2cc(C=NNC(=S)Nc3ccccc3)c(Cl)nc2c1` [Compound 5j, 2-((2-Chloro-7-methylquinolin-3-yl)methylene)-N-phenylhydrazinecarbothioamide]: 16.8% and 46.5 ± 3.12 µM.
Take `S=C(NCCN1CCOCC1)NN=Cc1cc2ccccc2nc1Cl` [Compound 5a, 2-((2-Chloroquinolin-3-yl)methylene)-N-(2-morpholinoethyl)hydrazinecarbothioamide]: in test [1], the “Butyrylcholinesterse (BChE) %inhibition” value is on record as 3.32%. Also, the IC50 in test [3] was found to be 2.95 ± 0.24 µM.
